Assay results: patent US9371290B2, “Pyridazinone compounds” (BIOTIE THERAPIES CORPORATION, priority 2011, dated 2016)

Tests used:
[1] = tested on: Total MAO; experiment: Total rat MAO activity (rat liver mitochondrial preparation, tyramine substrate); assay type: biochemical; conditions: at 50 μM
Description: Rat MAO was prepared from rat liver by rinsing the 1 g liver sample several times in 14 ml KCl-EDTA-solution to remove all blood. Then 1 g liver sample was homogenized in 4 ml ice-cold potassium phosphate buffer (0.1 M, pH 7.4) with an Ultra-Turrax homogenizer (setting 11 000 rpm, 4×10 s). After centrifugation at 500 g for 10 min at 4° C. the supernatant was carefully withdrawn and was centrifuged at 12 300 g for 15 min at 4° C. The supernatant was discharged and sedimented mitochondria were resuspended in 4 ml fresh phosphate buffer and centrifuged as previously. The mitochondria were suspended in 4 ml phosphate buffer and homogenized with an Ultra-Turrax homogenizer (setting 11 000 rpm, 2×10 s). Mitochondrial preparate was aliquoted and stored at −70° C. Total MAO activity was measured in a similar way as for VAP-1 SSAO except that SSAO enzyme was replaced by MAO enzyme. To each well was added a predetermined amount of inhibitor if required. The amount of inhibitor varied in each assay but was generally at a final concentration of between 10 nM and 800 μM. Controls lacked inhibitor. The inhibitor was in a total volume of 20 μl in water. The following reagents were then added. 0.2 M potassium phosphate buffer pH 7.6 for a total reaction volume of 200 μl, 50 μl of freshly made chromogenic solution (as above) and 50 μl of MAO preparation (or needed amount of MAO). The plates were incubated for 30 min at 37° C. and the background absorbance measured at 490 nm using a Wallac Victor II multilabel counter. To initiate the enzyme reaction 20 μl of 5 mM tyramine (final concentration 0.5 mM) was added and the plate incubated for 1 h at 37° C. The increase in absorbance, reflecting MAO activity, was measured at 490 nm. Inhibition was presented as percent inhibition compared to control after correcting for background absorbance and IC50 values calculated using GraphPad Prism. Clorgyline and pargyline (inhibitors of MAO-A and -B respectively) at 0.5 μM were added to some wells as positive controls for MAO inhibition.

[2] = target: T1, Recombinant human VAP-1 SSAO (Homo sapiens, UniProt Q16853); experiment: In vitro inhibition of VAP-1 SSAO activity (coupled colorimetric method, benzylamine substrate); assay type: biochemical; conditions: CHO cell lysate, 1 mM benzylamine, read-out: VAP-1 SSAO Inhibitory activity IC50
T1 construct: made in house; host or cells: Chinese Hamster Ovary (CHO) cells; clarified NP40 cell lysate used directly
T1 sequence (Q16853 1-763): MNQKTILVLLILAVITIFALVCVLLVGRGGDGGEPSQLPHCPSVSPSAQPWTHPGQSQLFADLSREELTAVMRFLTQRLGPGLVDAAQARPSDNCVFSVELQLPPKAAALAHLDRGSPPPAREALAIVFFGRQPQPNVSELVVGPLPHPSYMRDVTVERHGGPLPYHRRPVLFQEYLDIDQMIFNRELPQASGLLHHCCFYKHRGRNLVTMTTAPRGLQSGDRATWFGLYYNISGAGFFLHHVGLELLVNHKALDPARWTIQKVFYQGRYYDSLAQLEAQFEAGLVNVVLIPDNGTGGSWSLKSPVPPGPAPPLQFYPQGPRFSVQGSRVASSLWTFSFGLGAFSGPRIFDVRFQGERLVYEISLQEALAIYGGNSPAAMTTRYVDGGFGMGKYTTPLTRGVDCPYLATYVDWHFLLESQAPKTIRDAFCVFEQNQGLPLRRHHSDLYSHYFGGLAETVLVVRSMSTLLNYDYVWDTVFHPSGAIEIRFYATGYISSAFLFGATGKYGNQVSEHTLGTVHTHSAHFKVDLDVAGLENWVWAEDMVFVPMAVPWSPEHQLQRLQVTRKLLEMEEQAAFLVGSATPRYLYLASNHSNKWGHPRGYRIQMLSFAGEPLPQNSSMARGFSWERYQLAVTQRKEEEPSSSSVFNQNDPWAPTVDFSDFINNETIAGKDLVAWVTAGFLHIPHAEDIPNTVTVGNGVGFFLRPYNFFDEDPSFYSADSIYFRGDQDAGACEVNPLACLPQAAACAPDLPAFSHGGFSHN
Description: VAP-1 SSAO activity was measured using the coupled colorimetric method essentially as described for monoamine oxidase and related enzymes (Holt, A., et al., Anal. Biochem. 244:384-392 (1997)). Recombinant human VAP-1 SSAO expressed in Chinese Hamster Ovary (CHO) cells was used as a source of VAP-1 SSAO for activity measurements. Native CHO cells have negligible SSAO activity. These cells and their culture have previously been described (Smith, D. J., et al., J. Exp. Med. 188:17-27 (1998)). A cell lysate was prepared by suspending approximately 3.6×10^8 cells in 25 ml lysis buffer (150 mM NaCl, 10 mM Tris-Base pH 7.2, 1.5 mM MgCl2, 1% NP40) and incubating at 4° C. overnight on a rotating table. The lysate was clarified by centrifugation at 18 000 g for 5 min at room temperature and the supernatant used directly in the assay. The VAP-1 SSAO assay was performed in 96 well microtitre plates as follows. To each well was added a predetermined amount of inhibitor if required. The amount of inhibitor varied in each assay but was generally at a final concentration of between 1 nM and 50 μM. Controls lacked inhibitor. The inhibitor was in a total volume of 20 μl in water. The following reagents were then added. 0.2 M potassium phosphate buffer pH 7.6 to a total reaction volume of 200 μl, 50 μl of freshly made chromogenic solution containing 1 mM vanillic acid, 500 μM 4-aminoantipyrine and 8 U/ml horseradish peroxidase and an amount of CHO cell lysate containing VAP-1 SSAO that caused a change of 0.6 A490 per h. This was within the linear response range of the assay. The plates were incubated for 30 min at 37° C. and the background absorbance measured at 490 nm using a Wallac Victor II multilabel counter. To initiate the enzyme reaction 20 μl 10 mM benzylamine (final concentration=1 mM) was added and the plate incubated for 1 h at 37° C. The increase in absorbance, reflecting VAP-1 SSAO activity, was measured at 490 nm. Inhibition was presented as percent inhibition compared to control after correcting for background absorbance and IC50 values calculated using GraphPad Prism.

Row | SMILES | melting point [°C] | Total MAO Inhibitory activity (%) [1] [%] | IC50 [2] [µM]
1 | C=CCOc1cc(=O)n(-c2ccc(Cl)cc2)nc1-c1nc[nH]n1 [Compound 73] | 172 to 175 | 0 | 2.2
2 | O=c1cc(Nc2ccc(N3CCOCC3)cc2)c(-c2nc[nH]n2)nn1-c1ccc(Cl)cc1 [Compound 74] | 248 to 250 | 0 | 0.1
3 | C#CCNc1cc(=O)n(-c2ccc(Cl)cc2)nc1-c1nc[nH]n1 [Compound 75] | 252 to 254 | 0 | 0.22
4 | O=c1cc(Nc2ccc(N3CCN(Cc4ccccc4)CC3)cc2)c(-c2nc[nH]n2)nn1-c1ccc(Cl)cc1 [Compound 77] | 248 to 251 | 24 | 0.35
5 | C#CCCNc1cc(=O)n(-c2ccc(Cl)cc2)nc1-c1nc[nH]n1 [Compound 83] | 176 to 177 | 0 | 0.073
